Read-outs that look alike come from different tables or passages of the source.
Assays:
human 5-HT2A = human 5-HT2A (Homo sapiens, UniProt P28223); settings: for 5-HT2A % Max: % 5-HT Max, human 5-HT2A-CHO cells; for higher agonist potency for 5-HT2B and 5-HT2C relative to 5-HT2A: compared with 5-HT2A potency
human 5-HT2B = human 5-HT2B (Homo sapiens, UniProt P41595); settings: % 5-HT Max, human 5-HT2B-HEK293 cells
human 5-HT2C = human 5-HT2C (Homo sapiens, UniProt P28335); settings: % 5-HT Max, human 5-HT2C-CHO cells
Chain of human 5-HT2C (P28335 33-458): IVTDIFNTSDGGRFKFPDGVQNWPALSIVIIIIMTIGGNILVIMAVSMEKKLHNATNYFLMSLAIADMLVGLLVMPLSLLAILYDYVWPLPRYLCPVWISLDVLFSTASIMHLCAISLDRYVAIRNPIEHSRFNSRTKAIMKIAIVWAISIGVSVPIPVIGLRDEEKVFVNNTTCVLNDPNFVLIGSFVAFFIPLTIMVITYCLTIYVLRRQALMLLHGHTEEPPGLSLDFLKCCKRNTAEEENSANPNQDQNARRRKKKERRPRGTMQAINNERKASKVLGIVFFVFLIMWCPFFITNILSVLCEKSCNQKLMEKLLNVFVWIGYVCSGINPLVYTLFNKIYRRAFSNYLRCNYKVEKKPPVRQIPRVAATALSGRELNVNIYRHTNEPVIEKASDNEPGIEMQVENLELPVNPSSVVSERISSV

[1] = predicted hepatic clearance, human hepatic microsomes
5-HT2B = settings: read-out: 5-HT2B EC50; previously described, patent application ref 20; cited from earlier work
[2] = predicted hepatic clearance, rat
P-gp [3] = target: T1, P-gp (Homo sapiens, UniProt P08183); settings: MDCK-MDR1 cells, 5 µM
T1 sequence (P08183 whole entry): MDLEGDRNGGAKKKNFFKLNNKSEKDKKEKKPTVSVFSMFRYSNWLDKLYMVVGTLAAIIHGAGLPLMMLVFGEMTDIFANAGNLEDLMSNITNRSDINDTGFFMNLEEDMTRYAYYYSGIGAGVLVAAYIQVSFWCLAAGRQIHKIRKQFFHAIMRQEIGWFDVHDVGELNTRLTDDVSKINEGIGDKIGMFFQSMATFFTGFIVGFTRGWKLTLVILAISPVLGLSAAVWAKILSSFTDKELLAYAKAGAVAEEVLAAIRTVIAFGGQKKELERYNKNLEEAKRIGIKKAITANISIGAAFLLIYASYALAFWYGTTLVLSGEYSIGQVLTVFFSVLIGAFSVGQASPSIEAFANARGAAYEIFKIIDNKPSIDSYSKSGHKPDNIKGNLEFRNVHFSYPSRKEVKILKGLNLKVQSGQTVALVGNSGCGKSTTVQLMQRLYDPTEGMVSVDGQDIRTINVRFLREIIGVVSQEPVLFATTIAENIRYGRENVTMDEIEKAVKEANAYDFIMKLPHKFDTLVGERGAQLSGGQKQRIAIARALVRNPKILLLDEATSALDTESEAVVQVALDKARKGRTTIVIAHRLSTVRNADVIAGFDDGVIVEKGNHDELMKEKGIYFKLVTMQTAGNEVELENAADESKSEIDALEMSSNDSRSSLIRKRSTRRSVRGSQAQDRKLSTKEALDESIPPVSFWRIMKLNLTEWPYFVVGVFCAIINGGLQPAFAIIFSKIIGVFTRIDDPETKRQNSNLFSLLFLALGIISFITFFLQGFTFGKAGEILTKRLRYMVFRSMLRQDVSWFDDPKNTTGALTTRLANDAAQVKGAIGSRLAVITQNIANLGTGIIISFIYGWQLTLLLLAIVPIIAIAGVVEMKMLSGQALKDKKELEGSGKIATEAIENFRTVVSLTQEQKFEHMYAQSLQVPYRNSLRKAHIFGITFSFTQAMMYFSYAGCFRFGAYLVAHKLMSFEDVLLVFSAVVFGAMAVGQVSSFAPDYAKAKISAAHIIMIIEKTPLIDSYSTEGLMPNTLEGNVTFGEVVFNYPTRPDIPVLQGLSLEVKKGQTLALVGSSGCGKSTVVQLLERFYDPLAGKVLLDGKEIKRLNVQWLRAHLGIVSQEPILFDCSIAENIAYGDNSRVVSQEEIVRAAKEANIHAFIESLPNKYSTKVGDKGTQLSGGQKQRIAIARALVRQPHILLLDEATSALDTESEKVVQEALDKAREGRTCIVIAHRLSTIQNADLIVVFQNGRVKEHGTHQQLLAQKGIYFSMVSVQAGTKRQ

[4] = rat PK cassette, iv, 0.2 mg/kg
in vivo = settings: male, Sprague Dawley, rat, iv, 0.2 mg/kg
in vitro [5] = settings: human, plasma, pH 7.4
in vitro [6] = settings: rat, plasma, pH 7.4
in vitro [7] = settings: mouse, plasma, pH 7.4
P-gp [8] = target: T1, P-gp; assay: in vitro; settings: MDCK-MDR1

Chain of human 5-HT2B (P41595 whole entry): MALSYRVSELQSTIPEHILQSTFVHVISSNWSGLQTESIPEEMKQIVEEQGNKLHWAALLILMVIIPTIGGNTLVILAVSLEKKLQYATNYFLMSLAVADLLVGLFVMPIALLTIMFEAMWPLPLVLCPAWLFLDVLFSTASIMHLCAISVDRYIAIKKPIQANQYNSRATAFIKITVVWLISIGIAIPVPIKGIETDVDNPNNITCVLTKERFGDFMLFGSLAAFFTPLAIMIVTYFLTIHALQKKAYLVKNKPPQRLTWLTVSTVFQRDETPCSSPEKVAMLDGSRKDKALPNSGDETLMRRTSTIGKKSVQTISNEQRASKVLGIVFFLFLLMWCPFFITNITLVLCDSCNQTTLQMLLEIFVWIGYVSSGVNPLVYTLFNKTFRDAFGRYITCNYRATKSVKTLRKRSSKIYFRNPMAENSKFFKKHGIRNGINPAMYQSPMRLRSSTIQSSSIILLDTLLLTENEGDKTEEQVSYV
Chain of human 5-HT2A (P28223 whole entry): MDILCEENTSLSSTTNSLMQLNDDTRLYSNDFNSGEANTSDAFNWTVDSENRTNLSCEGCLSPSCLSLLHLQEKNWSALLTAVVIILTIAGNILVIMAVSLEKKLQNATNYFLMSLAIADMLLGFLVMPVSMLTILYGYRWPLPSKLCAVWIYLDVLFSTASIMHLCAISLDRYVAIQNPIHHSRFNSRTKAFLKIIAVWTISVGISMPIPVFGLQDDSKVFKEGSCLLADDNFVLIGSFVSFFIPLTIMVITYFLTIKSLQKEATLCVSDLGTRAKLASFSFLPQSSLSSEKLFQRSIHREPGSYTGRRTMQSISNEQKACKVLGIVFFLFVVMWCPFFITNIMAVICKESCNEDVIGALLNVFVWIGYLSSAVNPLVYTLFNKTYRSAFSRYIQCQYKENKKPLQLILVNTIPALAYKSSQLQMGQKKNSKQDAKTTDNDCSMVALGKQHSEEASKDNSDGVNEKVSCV

Row | Compound | 5-HT2A % Max (human 5-HT2A) [%] | 5-HT2B % Max (human 5-HT2B) [%] | 5-HT2C % Max (human 5-HT2C) [%] | CLhep [1] | other results
1 | COc1ccc2[nH]nc(CCN(C)C)c2c1 [Compound 6a] | 10.7 ± 0.6 | 48.0 ± 7.6 | 32.1 ± 2.2 | 12.1 (mL/min)/kg | EC50 (5-HT2B): > 10 µM
2 | [2H]C([2H])(Cc1n[nH]c2ccc(OC)cc12)N(C)C [Compound 6b] | 11.7 ± 0.6 | 60.5 | 32.3 | 11.7 (mL/min)/kg | 
3 | CN(C)CCc1n[nH]c2ccc(O)cc12 [Compound 16] | 26.2 ± 1.4 | 53.7 | 53.3 |  | 
4 | C1=C(c2n[nH]c3ccccc23)CNCC1 [Compound 19a] | 17.5 ± 3.2 | 83.8 ± 1.9 | 67.7 ± 6.6 |  | higher agonist potency for 5-HT2B and 5-HT2C relative to 5-HT2A (human 5-HT2A): approximately 10 fold
5 | Cn1nc(C2=CCCNC2)c2ccccc21 [Compound 19b] | 42.2 ± 3.7 | 48.0 ± 4.8 | 50.3 ± 2.4 |  | higher agonist potency for 5-HT2B and 5-HT2C relative to 5-HT2A (human 5-HT2A): approximately 10 fold
6 | Brc1ccc2[nH]nc(C3=CCCNC3)c2c1 [Compound 19d] | 41.4 ± 3.4 | 82.8 ± 1.9 | 93.9 | 5.6 (mL/min)/kg | CLhep [2]: 58 (mL/min)/kg; PappA-B (P-gp [3]): 7.9 10^–6 cm/s; CLp [4]: 34.2 (mL/min)/kg; Kp at 0.25 h (in vivo; brain): 5.4; Vd at 24 h (in vivo; plasma): 6.33 L/kg; half-life at 24 h (in vivo; plasma): 2.8 h; fraction unbound at 6 h, 5 µM (in vitro [5]): 0.12; fraction unbound at 6 h, 5 µM (in vitro [6]): 0.13; fraction unbound at 6 h, 5 µM (in vitro [7]): 0.12; efflux ratio at 5 µM (P-gp [8]): 1.3
7 | Nc1ccc2[nH]nc(C3=CCCNC3)c2c1 [Compound 19e] | 40.4 ± 1.3 | 96.1 | 86.9 |  | 
8 | COc1ccc2[nH]nc(C3=CCCNC3)c2c1 [Compound 19f] | 12.3 ± 1.8 | 93.6 | 59.8 ± 3.2 |  | 
